Patent US20100204142A1, “USE OF THE PEPTIDE PHPFHLFVY (RENIN INHIBITOR) AS A THERAPEUTIC AGENT” (priority 2007, published 2010)
Where no end group is shown, it is not given here.

How the values were obtained:
[1] = system: HIV-1 infected CEM-SS cells (strain HIV-1IIIB); experiment: HIV-1 antiviral assay (CPE reduction, MTS); type: cell-based; details: peptide 10 micrograms per ml, 6 days post-infection
CEM-SS cells = experiment: Cytotoxicity in CEM-SS cells (MTS); details: CEM-SS cells plus peptide only, peptide 10 micrograms per ml
MRSA = details: 5 micrograms per ml
Streptococcus pneumoniae = type: cell-based; details: 5 micrograms per ml
Pseudomonas aeruginosa = type: cell-based; details: 5 micrograms per ml
in vitro = type: cell-based; details: human, MRC-5 cells
Method: The following day, peptide was added and tested in duplicates.

HepG2-2.2.15 cells = experiment: Cytotoxicity in HepG2-2.2.15 cells (dye uptake); type: cell-based; details: dye uptake assay, % cell control
Method: HepG2-2.2.15 cells were plated in 96-well microtiter plates. After 16-24 hours the confluent monolayer of HepG2-2.2.15 cells was washed and the medium was replaced with complete medium containing test peptide—10 micrograms per ml—in duplicate. Lamivudine (3TC) was used as the positive control, while media alone was added to the cells as a negative control (virus control). Three days later the culture medium was replaced with fresh medium containing the peptide. Six days following the initial administration of the peptide, the cell culture supernatants was collected, treated with pronase and DNAse and then used in a real-time quantitative TaqMan PCR assay. The PCR-amplified HBV DNA was detected in real-time by monitoring increases in fluorescence signals that result from the exonucleolytic degradation of a quenched fluorescence probe molecule that hybridizes to the amplified HBV DNA. For each PCR amplification, a standard curve was simultaneously generated using dilutions of purified HBV DNA. Antiviral activity was calculated from the reduction in HBV DNA levels (% virus control). A novel dye uptake assay was then employed to measure cell viability, which is used to calculate toxicity (% cell control).

Molecule: Cc1cn([C@H]2C[C@H](N=[N+]=[N-])[C@@H](CO)O2)c(=O)[nH]c1=O [AZT]
- % CPE reduction in HIV-1 infected CEM-SS cells [1]: 99%
- % Cell viability (CEM-SS cells): 97%

Molecule: PHPFHLFVY-OH [Renin inhibitor]
- % inhibition (MRSA): 0.0%
- % inhibition (Streptococcus pneumoniae): 0.0%
- % inhibition (Pseudomonas aeruginosa): 0.0%
- viability at 144 h (in vitro): 100%

Molecule: Nc1ccn([C@@H]2CS[C@H](CO)O2)c(=O)n1 [3TC, Lamivudine, reference compound]
- % Cell viability (HepG2-2.2.15 cells): 95.8%
